{"source": "patent US20060069132A1", "about": "“Azolecarboxamide herbicides” (priority 2004, published 2006)", "key": {"barnyardgrass [1]": {"tested_on": "barnyardgrass", "assay": "Test B pre-/postemergence herbicide test", "type": "in vivo, Echinochloa crus-galli", "summary_of_the_method": "(§1)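 Pre: seeds sown, then sprayed. Post: 1–4-leaf plants (2–18 cm) sprayed at the same time. Paddy: flooded, treated at 2-leaf stage. Formulation: non-phytotoxic solvent with surfactant. Greenhouse 13–15 days; visual 0–100 score relative to controls.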"}, "Surinam grass": {"tested_on": "Surinam grass", "assay": "Test B pre-/postemergence herbicide test", "type": "in vivo, Urochloa decumbens", "summary_of_the_method": "(§2)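 Formulation: non-phytotoxic solvent mix with surfactant. Timing: preemergence on seed and postemergence on 2–18 cm plants, applied concurrently. Readout after 13–15 d greenhouse: visual 0–100 control rating against controls.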"}, "cocklebur": {"tested_on": "cocklebur", "assay": "Test B pre-/postemergence herbicide test", "type": "in vivo, Xanthium strumarium", "summary_of_the_method": "as §1"}, "corn": {"tested_on": "corn", "assay": "Test B pre-/postemergence herbicide test", "type": "in vivo, Zea mays", "summary_of_the_method": "as §2"}, "large crabgrass": {"tested_on": "large crabgrass", "assay": "Test B pre-/postemergence herbicide test", "type": "in vivo, Digitaria sanguinalis", "summary_of_the_method": "as §2"}, "giant foxtail": {"tested_on": "giant foxtail", "assay": "Test B pre-/postemergence herbicide test", "type": "in vivo, Setaria faberi", "summary_of_the_method": "as §2"}, "lambsquarters": {"tested_on": "lambsquarters", "assay": "Test B pre-/postemergence herbicide test", "type": "in vivo, Chenopodium album", "summary_of_the_method": "as §2"}, "morningglory": {"tested_on": "morningglory", "assay": "Test B pre-/postemergence herbicide test", "type": "in vivo, Ipomoea coccinea", "summary_of_the_method": "as §1"}, "pigweed": {"tested_on": "pigweed", "assay": "Test B pre-/postemergence herbicide test", "type": "in vivo, Amaranthus retroflexus", "summary_of_the_method": "as §2"}, "velvetleaf": {"tested_on": "velvetleaf", "assay": "Test B pre-/postemergence herbicide test", "type": "in vivo, Abutilon theophrasti", "summary_of_the_method": "as §2"}, "blackgrass": {"tested_on": "blackgrass", "assay": "Test B postemergence herbicide test", "type": "in vivo, Alopecurus myosuroides", "summary_of_the_method": "(§3)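 Read-out: visual comparison with controls, scored 0 to 100, where 100 means complete control and 0 no effect. Formulated chemicals were applied postemergence to plants 2–18 cm tall (1- to 4-leaf), or to flooded-paddy plants at the 2-leaf stage, then held 13 to 15 days under glass.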"}, "wheat": {"tested_on": "wheat", "assay": "Test B postemergence herbicide test", "type": "in vivo, Triticum aestivum", "design": "key to Wheat plant response rating: 0 = no effect, 100 = complete control", "summary_of_the_method": "as §3"}, "wild oat": {"tested_on": "wild oat", "assay": "Test B postemergence herbicide test", "type": "in vivo, Avena fatua", "summary_of_the_method": "as §3"}, "rice [2]": {"tested_on": "rice", "assay": "Test B flooded paddy test", "type": "in vivo, Oryza sativa", "conditions": "1000 g ai/ha, visual rating, scale 0 to 100 (0 no effect, 100 complete control), 13 to 15 days", "summary_of_the_method": "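Scale 0–100: zero equals no visible effect, 100 complete control, judged by eye relative to controls. Timing: 13 to 15 days in greenhouse post-treatment. Growth stage at spraying: two leaves (paddy) or one to four leaves, 2–18 cm (postemergence).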"}, "[3]": {"tested_on": "small flower umbrella sedge", "assay": "Test B flooded paddy test", "type": "in vivo, Cyperus difformis", "conditions": "1000 g ai/ha, visual rating, scale 0 to 100 (0 no effect, 100 complete control), 13 to 15 days", "summary_of_the_method": "as §3"}, "ducksalad [4]": {"tested_on": "ducksalad", "assay": "Test B flooded paddy test", "type": "in vivo, Heteranthera limosa", "conditions": "1000 g ai/ha, visual rating, scale 0 to 100 (0 no effect, 100 complete control), 13 to 15 days", "summary_of_the_method": "as §3"}, "barnyardgrass [5]": {"tested_on": "barnyardgrass", "assay": "Test B flooded paddy test", "type": "in vivo, Echinochloa crus-galli", "conditions": "1000 g ai/ha, visual rating, scale 0 to 100 (0 no effect, 100 complete control), 13 to 15 days", "summary_of_the_method": "as §3"}, "rice [6]": {"tested_on": "rice", "assay": "Test C flooded paddy test", "type": "in vivo, Oryza sativa", "summary_of_the_method": "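Injury scored visually against controls on a 0 (no effect) to 100 (complete control) scale, 12 to 14 days after treatment in greenhouse. Flooded paddy plants treated at 2-leaf stage; postemergence plants at 1- to 4-leaf stage, 2 to 18 cm tall.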"}, "[7]": {"tested_on": "smallflower umbrella sedge", "assay": "Test C flooded paddy test", "type": "in vivo, Cyperus difformis"}, "ducksalad [8]": {"tested_on": "ducksalad", "assay": "Test C flooded paddy test", "type": "in vivo, Heteranthera limosa"}, "barnyardgrass [9]": {"tested_on": "barnyardgrass", "assay": "Test C flooded paddy test", "type": "in vivo, Echinochloa crus-galli", "summary_of_the_method": "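Postemergence sprays were applied to plants 2 to 18 cm tall (1- to 4-leaf stage); in the flooded paddy test, barnyardgrass was grown to the 2-leaf stage. After 12 to 14 days in a greenhouse, injury was visually rated against untreated controls on a 0–100 scale (100 = complete control).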"}, "[10]": {"conditions": "Postemergence, 250 g ai/ha, scale 0 (no effect) to 100 (complete control)"}, "[11]": {"conditions": "postemergence, 62 g ai/ha, scale 0 to 100"}, "[12]": {"conditions": "62 g ai/ha, scale 0 to 100 (0 no effect, 100 complete control)"}, "[13]": {"conditions": "125 g ai/ha, scale 0 to 100 (0 no effect, 100 complete control)"}, "[14]": {"conditions": "250 g ai/ha, scale of 0 to 100, 0 is no effect, 100 is complete control"}, "[15]": {"conditions": "500 g ai/ha, visual rating after 12 to 14 days, scale 0 to 100 (0 no effect, 100 complete control)"}}, "data": [{"smiles": "CCNC(=O)c1cccc(NC(=O)c2cn(C(C)(C)C)nc2C(F)(F)F)c1", "note": "[Compound 192]", "values": [{"measurement": "Barnyardgrass plant response rating", "setting": "barnyardgrass [1]; [10]", "value": 10}, {"measurement": "Barnyardgrass plant response rating", "setting": "barnyardgrass [1]; [11]", "value": 0}, {"measurement": "Surinam Grass plant response rating", "setting": "Surinam grass; [10]", "value": 10}, {"measurement": "Surinam Grass plant response rating", "setting": "Surinam grass; [11]", "value": 10}, {"measurement": "Cocklebur plant response rating", "setting": "cocklebur; [10]", "value": 60}, {"measurement": "Cocklebur plant response rating", "setting": "cocklebur; [11]", "value": 0}, {"measurement": "Corn plant response rating", "setting": "corn; [10]", "value": 10}, {"measurement": "Corn plant response rating", "setting": "corn; [11]", "value": 10}, {"measurement": "Crabgrass, Large plant response rating", "setting": "large crabgrass; [10]", "value": 20}, {"measurement": "Crabgrass, Large plant response rating", "setting": "large crabgrass; [11]", "value": 10}, {"measurement": "Foxtail, Giant plant response rating", "setting": "giant foxtail; [10]", "value": 20}, {"measurement": "Foxtail, Giant plant response rating", "setting": "giant foxtail; [11]", "value": 10}, {"measurement": "Lambsquarters plant response rating", "setting": "lambsquarters; [10]", "value": 80}, {"measurement": "Lambsquarters plant response rating", "setting": "lambsquarters; [11]", "value": 70}, {"measurement": "Morningglory plant response rating", "setting": "morningglory; [10]", "value": 100}, {"measurement": "Morningglory plant response rating", "setting": "morningglory; [11]", "value": 60}, {"measurement": "Pigweed plant response rating", "setting": "pigweed; [10]", "value": 60}, {"measurement": "Pigweed plant response rating", "setting": "pigweed; [11]", "value": 30}, {"measurement": "Velvetleaf plant response rating", "setting": "velvetleaf; [10]", "value": 50}, {"measurement": "Velvetleaf plant response rating", "setting": "velvetleaf; [11]", "value": 20}, {"measurement": "Blackgrass plant response rating", "setting": "blackgrass; [10]", "value": 0}, {"measurement": "Blackgrass plant response rating", "setting": "blackgrass; [11]", "value": 0}, {"measurement": "Wheat plant response rating", "setting": "wheat; 250 g ai/ha, scale 0 to 100, 0 no effect, 100 complete control, preemergence", "value": 10}, {"measurement": "Wheat plant response rating", "setting": "wheat; [10]", "value": 0}, {"measurement": "Wheat plant response rating", "setting": "wheat; [11]", "value": 0}, {"measurement": "Oat, Wild plant response rating", "setting": "wild oat; [10]", "value": 20}, {"measurement": "Oat, Wild plant response rating", "setting": "wild oat; [11]", "value": 10}, {"measurement": "Rice plant response rating", "setting": "rice [2]", "value": 70}, {"measurement": "Sedge, Umbrella plant response rating", "setting": "[3]", "value": 80}, {"measurement": "Ducksalad plant response rating", "setting": "ducksalad [4]", "value": 80}, {"measurement": "Barnyardgrass plant response rating", "setting": "barnyardgrass [5]", "value": 80}, {"measurement": "Rice plant response rating", "setting": "rice [6]; [12]", "value": 0}, {"measurement": "Rice plant response rating", "setting": "rice [6]; [13]", "value": 15}, {"measurement": "Rice plant response rating", "setting": "rice [6]; [14]", "value": 45}, {"measurement": "Plant response rating, Rice", "setting": "rice [6]; [15]", "value": 70}, {"measurement": "Sedge, Umbrella plant response rating", "setting": "[7]; [12]", "value": 70}, {"measurement": "Sedge, Umbrella plant response rating", "setting": "[7]; [13]", "value": 75}, {"measurement": "Sedge, Umbrella plant response rating", "setting": "[7]; [14]", "value": 85}, {"measurement": "Plant response rating, Sedge, Umbrella", "setting": "[7]; [15]", "value": 90}, {"measurement": "Ducksalad plant response rating", "setting": "ducksalad [8]; [12]", "value": 0}, {"measurement": "Ducksalad plant response rating", "setting": "ducksalad [8]; [13]", "value": 0}, {"measurement": "Ducksalad plant response rating", "setting": "ducksalad [8]; [14]", "value": 25}, {"measurement": "Plant response rating, Ducksalad", "setting": "ducksalad [8]; [15]", "value": 60}, {"measurement": "Barnyardgrass plant response rating", "setting": "barnyardgrass [9]; [12]", "value": 0}, {"measurement": "Barnyardgrass plant response rating", "setting": "barnyardgrass [9]; 125 g ai/ha, scale of 0 to 100, 0 is no effect, 100 is complete control", "value": 0}, {"measurement": "Barnyardgrass plant response rating", "setting": "barnyardgrass [9]; [14]", "value": 0}, {"measurement": "Plant response rating, Barnyardgrass", "setting": "barnyardgrass [9]; [15]", "value": 70}]}]}
